Assay results reported in patent publication US20240307348A1, “COMPOSITION FOR PREVENTING AND TREATING MUSCLE DISEASE, IMPROVING MUSCLE FUNCTION OR ENHANCING MOTOR PERFORMANCE COMPRISING HYDRANGENOL OR HYDRANGEA EXTRACT AS ACTIVE INGREDIENT” (COSMAXBIO CO., LTD., priority 2018, published 2024).

How the values were obtained:
C2C12 cells [1] = assay: Change in muscle-related gene expression (qRT-PCR) upon treatment with hydrangenol or Hydrangea extract; format: cell-based; settings: C2C12 cells differentiated 5 days, 1 hour or 24 hours
Procedure: Each sample obtained in Examples 1 and 2 was analyzed in regards to its effects on the change in gene expression involved in the gain of muscle mass and the mitochondrial biogenesis and electron transport chain (ETC). For this experiment, C2C12 cells were differentiated for 5 days and then treated with the sample of Example 1 (25 μg/ml) or Example 2 (2.5 μg/ml) for 1 hour or 24 hours, respectively. Then, Trizol was used to extract RNA from the cell, and cDNA was synthesized from the RNA (cDNA synthesis kit, Bio-Rad). Finally, a realtime PCR (qRT-PCR) was performed (Viia7, […] Biosystems) using the oligomers of Table 1 as primers.
In the experimental example, the extract of Hydrangea serrata is indicated as S; the extract of Hydrangea macrophylla as M; and hydrangenol as H. “0” means a control that was treated with vehicle.

C2C12 cells [2] = assay: Change in muscle-related protein expression (primary antibodies) upon treatment with hydrangenol or Hydrangea extract; format: cell-based; settings: C2C12 cells differentiated 5 days; Example 1 25 ug/ml or Example 2 2.5 ug/ml; 1 hour or 24 hours; FIG. 9
Procedure: Each sample obtained in Examples 1 and 2 was analyzed in regards to its effects on the change in protein expression involved in the prevention of muscle diseases, the improvement of muscle functions, and the promotion of motor performance. For this experiment, C2C12 cells were differentiated for 5 days and then treated with the sample of Example 1 (25 ug/ml) or Example 2 (2.5 ug/ml) for 1 hour or 24 hours, respectively. Then, the cell was broken down with a modified LIPA buffer, and 20 ug of each sample was used for analysis. The primary antibodies of p-ERK (9101S: Cell Signaling), p-mTOR (ab109268, Abcam), mTOR (2972, Cell Signaling), p-p70S6K (9234, Cell Signaling), p-AMPK (4186, Cell Signaling), PGC1a (ab54481, Abcam), and ß-actin (A5316, Sigma) were used for the analysis.

[3] = Example 1 25 μg/ml or Example 2 2.5 μg/ml, FIG. 8

O=C1OC(c2ccc(O)cc2)Cc2cccc(O)c21 (centres unmarked) [Example 2, 8-hydroxy-3-(4-hydroxyphenyl)-3,4-dihydroisochromen-1-one] was tested, and the “expression of Myogenin” value (C2C12 cells [1]; [3]) was “promoted”, the “gene (mRNA) expression of PPARα” value (C2C12 cells [1]; [3]) was “increase” and the “gene expression of MyoD” value (C2C12 cells [1]; [3]) was “promoted”. The “gene expression of PGC1α” value (C2C12 cells [1]; [3]) was “activate”, the “gene expression of PPARδ” value (C2C12 cells [1]; [3]) was “activate” and the “gene expression of SIRT1” value (C2C12 cells [1]; [3]) was “increased”. For the same compound, the “amount of expression for most of genes shown in FIG. 8” value (C2C12 cells [1]; Example 2 2.5 μg/ml) was “regulated”, the “activity of p-AMPK” value (C2C12 cells [2]) was “increased” and the “phosphorylation of ERK (MAPK)” value (C2C12 cells [2]) was “through the phosphorylation of ERK”. For the same compound, the “phosphorylation of mTOR” value (C2C12 cells [2]) was “activated” and the “protein expression of PGC1α” value (C2C12 cells [2]) was “increased”.
